# Where two headings read alike, the source gives them in different places.
# Legend:
# [1] = test system: B/Florida/04/2006; experiment: Antiviral activity (drug efficacy evaluation by concentration) against B/Florida/04/2006; assay type: cell-based, B type influenza virus
# [2] = test system: A/California/07/2009 (H1N1); experiment: Antiviral activity (drug efficacy evaluation by concentration) against A/California/07/2009 (H1N1); assay type: cell-based, A type influenza virus; conditions: Influenza A virus
# [3] = test system: A/Perth/16/2009 (H3N2); experiment: Antiviral activity (drug efficacy evaluation by concentration) against A/Perth/16/2009 (H3N2); assay type: cell-based, A type influenza virus; conditions: Influenza A virus
# [4] = in vitro
# [5] = CC50, third EC50/CC50 column pair (c7), beside the EC50 of c6
# [6] = read-out: EC50 B/Florida/04/2006, B/Florida/04/2006
# [7] = H1N1, A/California/07/2009 (H1N1), read-out: EC50 A/California/07/2009 (H1N1)
# [8] = H3N2, A/Perth/16/2009 (H3N2), read-out: EC50 A/Perth/16/2009 (H3N2)
# [9] = CC50 B/Florida/04/2006, cytotoxicity in the B/Florida/04/2006 assay
SMILES,EC50 [1] [µM],"EC50 ([2]; H1N1, read-out: EC50) [µM]","EC50 ([3]; H3N2, read-out: EC50) [µM]",melting point [°C],"CC50 ([4]; CC50, beside the EC50 of c2) [µM]","CC50 ([4]; CC50, beside the EC50 of c4) [µM]","CC50 [4, 5] [µM]","EC50 [1, 6] [µM]","EC50 [2, 7] [µM]","EC50 [3, 8] [µM]","CC50 [4, 9] [µM]"
"CC(C)c1ccccc1CCc1nnc(Nc2ccc(Br)cc2)o1 [Compound 84, N-(4-bromophenyl)-5-(2-isopropylphenethyl)-1,3,4-oxadiazol-2-amine]",> 50,34.7,41.7,175.4,> 50,> 50,> 50,–,–,–,–
"Cc1cc(C(F)(F)F)ccc1/C=C/c1nnc(Cc2cccc(Br)c2)o1 [Compound 198, 2-(3-bromobenzyl)-5-(2-methyl-4-(trifluoromethyl)styryl)-1,3,4-oxadiazole]",47.9,35.7,> 50,116,> 50,> 50,> 50,–,–,–,–
"Cc1ccccc1Sc1nnc(Cn2nc(C)c(Br)c2C)o1 [Compound 53, 2-((4-bromo-3,5-dimethyl-1H-pyrazol-1-yl)methyl)-5-(o-tolylthio)-1,3,4-oxadiazole]",–,–,–,103.6,–,–,–,8.94,0.12,8.57,7.91
"Clc1ccc(/C=C/c2nnc(Cc3cccc(Br)c3)o2)c(Cl)c1 [Compound 192, 2-(3-bromobenzyl)-5-(2,4-dichlorostyryl)-1,3,4-oxadiazole]",5.49,4.66,2.6,142.4,> 50,> 50,> 50,–,–,–,–
"CC(C)c1cccc(Cc2nnc(/C=C/c3ccc(F)cc3Cl)o2)c1 [Compound 182, (E)-2-(2-chloro-4-fluorostyryl)-5-(3-isopropylbenzyl)-1,3,4-oxadiazole]",0.549,0.617,0.373,117.3,> 50,> 50,> 50,–,–,–,–
"Cc1nn(Cc2nnc(SCc3cccc(-c4ccccc4)c3)o2)c(C)c1Br [Compound 6, 2-(([1,1′-biphenyl]-3-ylmethyl)thio)-5-((4-bromo-3,5-dimethyl-1H-pyrazol-1-yl)methyl)-1,3,4-oxadiazole]",–,–,–,90.3,–,–,–,3,2.91,2.74,> 50
"CC(C)c1cccc(/C=C/c2nnc(Cc3ccc(Br)cc3)o2)c1 [Compound 151, 2-(4-bromobenzyl)-5-(3-isopropylstyryl)-1,3,4-oxadiazole]",6.39,21.3,6.38,61.8,> 50,> 50,> 50,–,–,–,–
"Fc1ccc(/C=C/c2nnc(Cc3cccc(Br)c3)o2)cc1F [Compound 191, 2-(3-bromobenzyl)-5-(3,4-difluorostyryl)-1,3,4-oxadiazole]",13.2,8.24,4.99,112.8,> 50,> 50,> 50,–,–,–,–
"Cc1nn(Cc2nnc(SCc3ccccc3-c3ccsc3)o2)c(C)c1Br [Compound 35, 2-((4-bromo-3,5-dimethyl-1H-pyrazol-1-yl)methyl)-5-((2-(thiophen-3-yl)benzyl)thio)-1,3,4-oxadiazole]",–,–,–,86.9,–,–,–,1.88,0.7,0.8,> 50
"Cc1cc(Br)cc(C)c1Nc1nnc(SCc2ccccc2-c2ccccc2)o1 [Compound 61, 5-(([1,1′-biphenyl]-2-ylmethyl)thio)-N-(4-bromo-2,6-dimethylphenyl)-1,3,4-oxadiazol-2-amine]",–,–,–,211.2,–,–,–,2.3,2.3,2.61,4.02
"Fc1ccc(/C=C/c2nnc(Nc3ccc(Br)cc3)o2)c(Cl)c1 [Compound 87, (E)-N-(4-bromophenyl)-5-(2-chloro-4-fluorostyryl)-1,3,4-oxadiazol-2-amine]",2.52,2.74,1.97,218.7,> 50,> 50,> 50,–,–,–,–
"Cc1ccccc1/C=C/c1nnc(Cc2ccc(Br)cc2)o1 [Compound 170, 2-(4-bromobenzyl)-5-(2-methylstyryl)-1,3,4-oxadiazole]",2.05,2,2.04,108.5,8.53,6.63,9.08,–,–,–,–
"Cc1nn(Cc2nnc(SCc3cccc4ccccc34)o2)c(C)c1Br [Compound 8, 2-((4-bromo-3,5-dimethyl-1H-pyrazol-1-yl)methyl)-5-((naphthalen-1-ylmethyl)thio)-1,3,4-oxadiazole]",–,–,–,112.1,–,–,–,7.48,6.94,10.5,> 50
"Fc1ccc(/C=C/c2nnc(Cc3cccc4ccccc34)o2)c(Cl)c1 [Compound 185, (E)-2-(2-chloro-4-fluorostyryl)-5-(naphthalen-1-ylmethyl)-1,3,4-oxadiazole]",> 50,> 50,> 50,152.7,> 50,> 50,> 50,–,–,–,–
"Cc1ccccc1CCc1nnc(Nc2ccc(F)c(Cl)c2)o1 [Compound 122, N-(3-chloro-4-fluorophenyl)-5-(2-methylphenethyl)-1,3,4-oxadiazol-2-amine]",> 50,37.4,43.9,87,> 50,> 50,–,–,–,–,–
"Brc1ccc(Cc2nnc(/C=C/c3ccccc3)o2)cc1 [Compound 165, 2-(4-bromobenzyl)-5-styryl-1,3,4-oxadiazole]",2.84,1.95,3.76,110.6,12.6,13.5,10.1,–,–,–,–
"Clc1cc2c(cc1/C=C/c1nnc(Cc3ccc(Br)cc3)o1)OCO2 [Compound 162, 2-(4-bromobenzyl)-5-(2-(6-chlorobenzo[d][1,3]dioxol-5-yl)vinyl)-1,3,4-oxadiazole]",> 50,30.5,> 50,186.2,> 50,> 50,> 50,–,–,–,–
"Brc1ccc(Cc2nnc(/C=C/c3ccccc3Oc3ccccc3)o2)cc1 [Compound 127, (E)-2-(4-bromobenzyl)-5-(2-phenoxystyryl)-1,3,4-oxadiazole]",16,34.9,24.4,125.5,> 50,> 50,> 50,–,–,–,–
"CC(C)c1ccccc1/C=C/c1nnc(Cc2cccc(Br)c2)o1 [Compound 130, 2-(3-bromobenzyl)-5-(2-isopropylstyryl)-1,3,4-oxadiazole]",36.2,42.4,32.8,79.3,> 50,> 50,> 50,–,–,–,–
"Brc1ccc(Nc2nnc(SCc3ccccc3-c3ccccc3)o2)cc1 [Compound 52, 5-(([1,1′-biphenyl]-2-ylmethyl)thio)-N-(4-bromophenyl)-1,3,4-oxadiazol-2-amine]",–,–,–,158.2,–,–,–,16.3,> 50,8.11,> 50
"Fc1ccc(Cl)c(/C=C/c2nnc(Cc3cccc(Br)c3)o2)c1 [Compound 193, 2-(3-bromobenzyl)-5-(2-chloro-5-fluorostyryl)-1,3,4-oxadiazole]",> 50,> 50,> 50,97.1,> 50,> 50,> 50,–,–,–,–
"Clc1ccc(/C=C/c2nnc(Cc3ccc(Br)cc3)o2)cc1 [Compound 171, 2-(4-bromobenzyl)-5-(4-chlorostyryl)-1,3,4-oxadiazole]",4.3,3.74,3.63,129,> 50,49.5,36.2,–,–,–,–
"Fc1ccc(/C=C/c2nnc(Cc3ccc(Br)cc3)o2)c(Cl)c1 [Compound 86, (E)-2-(4-bromobenzyl)-5-(2-chloro-4-fluorostyryl)-1,3,4-oxadiazole]",42,2.7,45.7,147.9,> 50,> 50,> 50,–,–,–,–
"O=C(NCc1nnc(SCc2ccccc2-c2ccccc2)o1)c1ccc(Br)cc1 [Compound 51, N-((5-(([1,1′-biphenyl]-2-ylmethyl)thio)-1,3,4-oxadiazol-2-yl)methyl)-4-bromobenzamide]",–,–,–,135.4,–,–,–,6.02,4.01,5.04,28.6
"Brc1ccc(Cc2nc(/C=C/c3ccccc3)no2)cc1 [Compound 183, (E)-5-(4-bromobenzyl)-3-styryl-1,2,4-oxadiazole]",1.86,1.33,0.904,78.4,> 50,> 50,> 50,–,–,–,–
"Cc1ccccc1CSc1ccc(C(=O)n2nc(C)c(Br)c2C)o1 [Compound 48, (4-bromo-3,5-dimethyl-1H-pyrazol-1-yl)(5-((2-methylbenzyl)thio)furan-2-yl)methanone]",–,–,–,101.2,–,–,–,23.4,4.88,11.3,9.54

# Source: patent publication US11149033B2, “Heteroaryl compound, enantiomer, diastereomer or pharmaceutically acceptable salt thereof, and antiviral composition containing same as active ingredient” (priority 2016, dated 2021)
